Key:
[1] = collision cross section (TIMS, N2 drift gas) of the primary ion; higher = larger gas-phase ion size
[2] = reversed-phase LC retention time (C18, 15 min MeOH gradient); higher = more hydrophobic / later elution
[3] = ionization mode: ESI+, ion species: [M+H]+
[4] = ionization mode: ESI-, ion species: [M-H]-
[5] = ionization mode: ESI+, ion species: [M]+

collision cross section [1, 3]	collision cross section [1, 4]	reversed-phase LC retention time [2, 3]	reversed-phase LC retention time [2, 4]	Structure (SMILES)	collision cross section [1, 5]	reversed-phase LC retention time [2, 5]
152.91 Å²	166.14 Å²	11.7 min	9.17 min	CC1CCc2cc(F)cc3c(=O)c(C(=O)O)cn1c23 (stereo unspecified) [Flumequine]	–	–
–	198.83 Å²	–	13.7 min	CC1(C)O[C@@H]2C[C@H]3[C@@H]4C[C@H](F)C5=CC(=O)C=C[C@]5(C)[C@@]4(F)[C@@H](O)C[C@]3(C)[C@]2(C(=O)CO)O1 [Fluocinolone acetonide]	–	–
176.08 Å²	–	14.4 min	–	O=C(NCc1ncc(C(F)(F)F)cc1Cl)c1c(Cl)cccc1Cl [Fluopicolide]	–	–
177.66 Å²	–	13.4 min	–	CNCCC(Oc1ccc(C(F)(F)F)cc1)c1ccccc1 (stereo unspecified) [Fluoxetine]	–	–
200.91 Å²	–	14.9 min	–	OCCN1CCN(CC/C=C2/c3ccccc3Sc3ccc(C(F)(F)F)cc32)CC1 [Flupentixol_1]	–	–
212.76 Å²	209.59 Å²	15.2 min	15.7 min	CCC(=O)O[C@]1(C(=O)SCF)[C@H](C)C[C@H]2[C@@H]3C[C@H](F)C4=CC(=O)C=C[C@]4(C)[C@@]3(F)[C@@H](O)C[C@@]21C [Fluticasone propionate]	–	–
178.07 Å²	–	13.3 min	–	COCCCCC(=NOCCN)c1ccc(C(F)(F)F)cc1 [Fluvoxamine]	–	–
178.14 Å²	180.37 Å²	14.4 min	14.7 min	Cn1cc(C(=O)Nc2ccccc2-c2cc(F)c(F)c(F)c2)c(C(F)F)n1 [Fluxapyroxad]	–	–
158.9 Å²	163.97 Å²	13.2 min	12.2 min	COc1ccc(-c2coc3cc(O)ccc3c2=O)cc1 [Formononetin]	–	–
138.67 Å²	–	8.29 min	–	COc1cc2ccc(=O)oc2c(O)c1O [Fraxetin]	–	–
143.3 Å²	145.19 Å²	9.58 min	8.57 min	COc1cc2ccc(=O)oc2c(O)c1OC [Fraxidin]	–	–
161.99 Å²	172.55 Å²	14.3 min	9.47 min	NS(=O)(=O)c1cc(C(=O)O)c(NCc2ccco2)cc1Cl [Furosemide]	–	–
169.25 Å²	–	5.92 min	–	COc1ccc2c3c1O[C@H]1C[C@@H](O)C=C[C@@]31CCN(C)C2 [Galantamine]	–	–
160.2 Å²	159.59 Å²	11.9 min	10.2 min	O=c1c(-c2ccc(O)cc2)coc2cc(O)cc(O)c12 [Genistein]	–	–
208.58 Å²	214.7 Å²	14.8 min	14 min	COc1ccc(Cl)cc1C(=O)NCCc1ccc(S(=O)(=O)NC(=O)NC2CCCCC2)cc1 [Glibenclamide]	–	–
216.66 Å²	215.02 Å²	15.3 min	14.3 min	CCC1=C(C)CN(C(=O)NCCc2ccc(S(=O)(=O)NC(=O)NC3CCC(C)CC3)cc2)C1=O (stereo unspecified) [Glimepiride]	–	–
–	282.7 Å²	–	11.8 min	CC1(C)[C@@H](O[C@H]2O[C@H](C(=O)O)[C@@H](O)[C@H](O)[C@H]2O[C@@H]2O[C@H](C(=O)O)[C@@H](O)[C@H](O)[C@H]2O)CC[C@]2(C)[C@H]3C(=O)C=C4[C@@H]5C[C@@](C)(C(=O)O)CC[C@]5(C)CC[C@@]4(C)[C@]3(C)CC[C@@H]12 [Glycyrrhizic acid]	–	–
152.13 Å²	–	9.65 min	–	NC(N)=NC(=O)Cc1c(Cl)cccc1Cl [Guanfacine]	–	–
–	178.05 Å²	–	18.9 min	BrC1CCC(Br)C(Br)CCC(Br)C(Br)CCC1Br (stereo unspecified) [Hexabromocyclododecane (two peaks)]	–	–

collision cross section [1, 3]	collision cross section [1, 4]	reversed-phase LC retention time [2, 3]	reversed-phase LC retention time [2, 4]	Structure (SMILES)	collision cross section [1, 5]	reversed-phase LC retention time [2, 5]
–	–	–	–	CCCCCCCCCCCCCCCC[n+]1ccccc1 [Hexadecylpyridinium]	197.5 Å²	17.5 min
–	–	–	–	CCCCCCCCCCCCCCCC[N+](C)(C)C [Hexadecyltrimethylammonium]	196.39 Å²	17.4 min
–	152.66 Å²	–	4.93 min	NS(=O)(=O)c1cc2c(cc1Cl)NCNS2(=O)=O [Hydrochlorothiazide]	–	–
–	198.1 Å²	–	13.7 min	CC(=O)OCC(=O)[C@@]1(O)CC[C@H]2[C@@H]3CCC4=CC(=O)CC[C@]4(C)[C@H]3[C@@H](O)C[C@@]21C [Hydrocortisonacetate]	–	–
189.25 Å²	–	12.4 min	–	C[C@]12CCC(=O)C=C1CC[C@@H]1[C@@H]2[C@@H](O)C[C@@]2(C)[C@H]1CC[C@]2(O)C(=O)CO [Hydrocortisone]	–	–
–	201.31 Å²	–	7.66 min	O=c1c(O[C@@H]2O[C@H](CO)[C@H](O)[C@H](O)[C@H]2O)c(-c2ccc(O)c(O)c2)oc2cc(O)cc(O)c12 [Hyperin]	–	–
152.87 Å²	–	13.6 min	–	CCC(C)OC(=O)N1CCCCC1CCO (stereo unspecified) [Icaridin]	–	–
167.87 Å²	–	12.7 min	–	C=CCOC(Cn1ccnc1)c1ccc(Cl)cc1Cl (stereo unspecified) [Imazalil]	–	–
–	122.39 Å²	–	9.34 min	O=Cc1c[nH]c2ccccc12 [Indole-3-carboxyaldehyde]	–	–
182.58 Å²	188.5 Å²	15.3 min	13.8 min	COc1ccc2c(c1)c(CC(=O)O)c(C)n2C(=O)c1ccc(Cl)cc1 [Indomethacin]	–	–
226.32 Å²	220.12 Å²	5.4 min	5.47 min	CC(=O)N(CC(O)CO)c1c(I)c(C(=O)NCC(O)CO)c(I)c(C(=O)NCC(O)CO)c1I (stereo unspecified) [Iohexol]	–	–
216.41 Å²	210.1 Å²	5.52 min	5.58 min	CN(C(=O)CO)c1c(I)c(C(=O)NCC(O)CO)c(I)c(C(=O)NCC(O)CO)c1I (stereo unspecified) [Iomeprol]	–	–
216.64 Å²	206.33 Å²	5.52 min	3.71 min	C[C@H](O)C(=O)Nc1c(I)c(C(=O)NC(CO)CO)c(I)c(C(=O)NC(CO)CO)c1I [Iopamidol]	–	–
215.51 Å²	212.29 Å²	6.66 min	6.74 min	COCC(=O)Nc1c(I)c(C(=O)NCC(O)CO)c(I)c(C(=O)N(C)CC(O)CO)c1I (stereo unspecified) [Iopromide]	–	–
196.72 Å²	–	11.3 min	–	CCC(Cc1ccccc1)(C(=O)c1ccc(N2CCOCC2)cc1)N(C)C (stereo unspecified) [Irgacure 369]	–	–
163.17 Å²	–	14.4 min	–	CSc1nc(NC2CC2)nc(NC(C)(C)C)n1 [Irgarol]	–	–
128.32 Å²	–	17.1 min	–	CC(C)C(=O)c1ccccc1 [Isobutyrophenone]	–	–
141.08 Å²	–	1.84 min	–	CC1(C)CC(N)CC(C)(CN)C1 (stereo unspecified) [Isophorone diamine]	–	–

Structure (SMILES)	collision cross section [1, 3]	collision cross section [1, 4]	reversed-phase LC retention time [2, 3]	reversed-phase LC retention time [2, 4]	collision cross section [1, 5]	reversed-phase LC retention time [2, 5]
C#CCN1C(=O)COc2cc(F)c(N3C(=O)C4=C(CCCC4)C3=O)cc21 [Flumioxazin]	188.98 Å²	–	13.5 min	–	–	–
O=C(NCCc1ncc(C(F)(F)F)cc1Cl)c1ccccc1C(F)(F)F [Fluopyram]	177.5 Å²	179.2 Å²	14.7 min	15.2 min	–	–
Oc1ccc(C2(c3ccc(O)cc3)c3ccccc3-c3ccccc32)cc1 [Fluorene-9-bisphenol]	–	194.22 Å²	–	15.3 min	–	–
CO/N=C(/C1=NOCCO1)c1ccccc1Oc1ncnc(Oc2ccccc2Cl)c1F [Fluoxastrobin]	205.37 Å²	–	14.8 min	–	–	–
O=C1C=C(N(Cc2ccc(Cl)nc2)CC(F)F)CO1 [Flupyradifurone]	164.36 Å²	163.3 Å²	9.35 min	9.46 min	–	–
Nc1c(Cl)c(F)nc(OCC(=O)O)c1Cl [Fluroxypyr]	–	139.78 Å²	–	7.61 min	–	–
CNC1=C(c2cccc(C(F)(F)F)c2)C(=O)C(c2ccccc2)O1 (stereo unspecified) [Flurtamone]	179.28 Å²	175.08 Å²	13.9 min	14.2 min	–	–
C[Si](Cn1cncn1)(c1ccc(F)cc1)c1ccc(F)cc1 [Flusilazole]	176.25 Å²	–	15.2 min	–	–	–
CC(C)Oc1cccc(NC(=O)c2ccccc2C(F)(F)F)c1 [Flutolanil]	173.43 Å²	176.16 Å²	14.3 min	14.7 min	–	–
OC(Cn1cncn1)(c1ccc(F)cc1)c1ccccc1F (stereo unspecified) [Flutriafol]	167.74 Å²	–	12.9 min	–	–	–
O=C1CC2(CCCCC2)CN1 [Gabapentin-Lactam]	135.35 Å²	–	11.2 min	–	–	–
NCC1(CC(=O)O)CCCCC1 [Gabapentin]	139.22 Å²	–	7.2 min	–	–	–
C#C[C@]1(O)C=C[C@H]2[C@@H]3CCC4=CC(=O)CC[C@@H]4[C@H]3CC[C@@]21CC [Gestoden]	181.55 Å²	–	14 min	–	–	–
O=C(O)C(F)(OC(F)(F)C(F)(F)C(F)(F)F)C(F)(F)F (stereo unspecified) [HFPO-DA]	–	206.28 Å²	–	13 min	–	–
CC(Oc1ccc(Oc2ncc(C(F)(F)F)cc2Cl)cc1)C(=O)O (stereo unspecified) [Haloxyfop-P]	181.48 Å²	190.86 Å²	15.5 min	14 min	–	–
Cc1nccc2c1[nH]c1ccccc12 [Harman]	136.39 Å²	135.7 Å²	8.86 min	13.4 min	–	–
COc1ccc2c(c1)[nH]c1c(C)nccc12 [Harmine]	145.04 Å²	145.84 Å²	9.71 min	13.5 min	–	–
O=P1(NCCCl)OCCCN1CCCl (stereo unspecified) [Ifosfamide]	148.36 Å²	–	10.2 min	–	–	–
CC(C)C1(C)N=C(c2ncccc2C(=O)O)NC1=O (stereo unspecified) [Imazapyr]	156.96 Å²	–	8.78 min	–	–	–
NC1=NCCN1Cc1ccc(Cl)nc1 [Imidacloprid-guanidine]	148.89 Å²	–	6.21 min	–	–	–
O=C1NCCN1Cc1ccc(Cl)nc1 [Imidacloprid-urea]	143.26 Å²	–	8.55 min	–	–	–
O=[N+]([O-])/N=C1\NCCN1Cc1ccc(Cl)nc1 [Imidacloprid]	155.98 Å²	157.08 Å²	8.67 min	8.7 min	–	–
COC(=O)N(C(=O)N1CO[C@@]2(C(=O)OC)Cc3cc(Cl)ccc3C2=N1)c1ccc(OC(F)(F)F)cc1 [Indoxacarb]	206.73 Å²	–	16.2 min	–	–	–
CC(C)C1CCC(Cc2ccc(Cl)cc2)C1(O)Cn1cncn1 (stereo unspecified) [Ipconazole]	174.42 Å²	–	16.4 min	–	–	–

From the supplement of paper PMC12613149
